From patent US10584106B1, “Antifungal compounds derived from lavender oil” (King Abdulaziz University, priority 2018, dated 2020)
Where two headings read alike, the source gives them in different places.

Tests used:
Experiment in all cases: Antifungal activity by the well-cut diffusion method
Format in all cases: cell-based
Microsporum gallinna [1] = conditions: for zone of inhibition at 500 µg/mL: Microsporum, read-out: Inhibition Zone Dimeter (mm) M. gallina
Microsporum canis = conditions: for zone of inhibition at 500 µg/mL / zone of inhibition at 1000 µg/mL: Microsporum canis, read-out: Inhibition Zone Dimeter (mm) M. canis
Method: (§1) Microsporum canis and Microsporum gallinna were obtained from King Fahad Hospital in Jeddah, Saudi Arabia
(§2) Antifungal Activity by the Well-Cut Diffusion Method:
Well-cut diffusion technique was used to evaluate the antifungal activities of the_tested compounds [El-Masry et al. “Synthesis and antimicrobial activity of some new benzimidazole derivatives” Molecules, 5 (2002), pp. 1429-1438]. The Sabaroud dexterous agar media was inoculated with 1 ml from tested spore suspension, then wells were cut from the plate using a sterile 10 mm cork-borer. […] All plates were incubated at 4° C. for 2 h to slow fungal growth. The plates were later incubated at 28° C. for a week [Mtolera and Semesi “Antimicrobial activity of extracts from six green algae from Tanzania.” Curr. Trends Mar. Bot. Res. East Afr. Reg. pp. 211-217 (1996)]. After incubation, the diameter of the growth inhibition zone was measured in mm [Attaie et al. Inhibition of growth of S. aureus during production of acidophilus yogurt J. Food Prot., 50 (1987), pp. 224-228], see Table 3.

Microsporum gallinna [2] = conditions: for zone of inhibition at 1000 µg/mL: Microsporum, read-out: Inhibition Zone Dimeter (mm) M. gallina
Method: as §1, §2
Well-cut diffusion technique was used to evaluate the antifungal activities of the_tested compounds [El-Masry et al. “Synthesis and antimicrobial activity of some new benzimidazole derivatives” Molecules, 5 (2002), pp. 1429-1438]. The Sabaroud dexterous agar media was inoculated with 1 ml from tested spore suspension, then wells were cut from the plate using a sterile 10 mm cork-borer. About 0.5 and 1.0 ml of a chloroform solution containing 1.0 mg/ml of tested compounds were added into each well. All plates were incubated at 4° C. for 2 h to slow fungal growth. The plates were later incubated at 28° C. for a week [Mtolera and Semesi “Antimicrobial activity of extracts from six green algae from Tanzania.” Curr. Trends Mar. Bot. Res. East Afr. Reg. pp. 211-217 (1996)]. After incubation, the diameter of the growth inhibition zone was measured in mm [Attaie et al. Inhibition of growth of S. aureus during production of acidophilus yogurt J. Food Prot., 50 (1987), pp. 224-228], see Table 3.

[3] = Concentration 0.5 mg/mL, 28° C. for a week, 10 mm wells
[4] = Concentration 1.0 mg/mL, 28° C. for a week, 10 mm wells

C=CC(C)(CC=CC(C)(C)OO)OC(C)=O (centres unmarked) [Hydroperoxide 6, 7-Hydroperoxy-3,7-dimethylocta-1,5-diene-3-yl acetate]
zone of inhibition at 500 µg/mL (Microsporum gallinna [1]): 80 mm
zone of inhibition at 500 µg/mL (Microsporum canis; [3]): 80 mm
zone of inhibition at 1000 µg/mL (Microsporum canis; [4]): 85 mm
inhibition of Microsporum canis grown on the solid media (in words) (Microsporum canis): strongly inhibited
zone of inhibition at 1000 µg/mL (Microsporum gallinna [2]): 85 mm
inhibition of Microsporum gallinna grown on the solid media (in words) (Microsporum gallinna [2]): strongly inhibited

C=CC(C)(CCC1OC1(C)C)OC(C)=O (centres unmarked) [Epoxide 3, 6,7-Epoxy-3,7-dimethyl-1-octene-3-yl-acetate]
Inhibition Zone Dimeter (mm) M. gallina (Microsporum gallinna [1]; [3]): 37.0 mm
Inhibition Zone Dimeter (mm) M. canis (Microsporum canis; [3]): 60.0 mm
Inhibition Zone Dimeter (mm) M. canis (Microsporum canis; [4]): 85.0 mm
inhibition of Microsporum canis grown on the solid media (in words) (Microsporum canis): strongly inhibited
Inhibition Zone Dimeter (mm) M. gallina (Microsporum gallinna [2]; [4]): 74.0 mm
inhibition of Microsporum gallinna grown on the solid media (in words) (Microsporum gallinna [2]): strongly inhibited

C=CC(C)(CCC(OO)C(=C)C)OC(C)=O (centres unmarked) [Hydroperoxide 5, 6-Hydroperoxy-3,7-dimethylocta-1,7-diene-3-yl acetate]
antimicrobial activity against M. gallinna, comparison among tested compounds (Microsporum gallinna [1]; 0.5 mg/ml concentration): highest antimicrobial activity
zone of inhibition at 500 µg/mL (Microsporum gallinna [1]): 80.5 mm
antimicrobial activity against M. canis, comparison among tested compounds (Microsporum canis; 0.5 mg/ml concentration): highest antimicrobial activity
zone of inhibition at 500 µg/mL (Microsporum canis; [3]): 81 mm
zone of inhibition at 1000 µg/mL (Microsporum canis; [4]): 85 mm
inhibition of Microsporum canis grown on the solid media (in words) (Microsporum canis): strongly inhibited
zone of inhibition at 1000 µg/mL (Microsporum gallinna [2]): 85 mm
inhibition of Microsporum gallinna grown on the solid media (in words) (Microsporum gallinna [2]): strongly inhibited

C=CC(C)(CCC=C(C)C)OC(C)=O (centres unmarked) [Linalyl acetate, 3,7-Dimethyl-1,6-octadien-3-yl acetate, reference compound]
zone of inhibition at 500 µg/mL (Microsporum gallinna [1]): 80 mm
zone of inhibition at 500 µg/mL (Microsporum canis): 80 mm
zone of inhibition at 1000 µg/mL (Microsporum canis): 85 mm
inhibition of Microsporum canis grown on the solid media (in words) (Microsporum canis): strongly inhibited
zone of inhibition at 1000 µg/mL (Microsporum gallinna [2]): 85 mm
inhibition of Microsporum gallinna grown on the solid media (in words) (Microsporum gallinna [2]): strongly inhibited

CC(=O)OC(C)(CCC=C(C)C)C1CO1 (centres unmarked) [Epoxide 4, 1,2-Epoxy-3,7-dimethyl-6-octene-3-yl acetate]
zone of inhibition at 500 µg/mL (Microsporum gallinna [1]): 65 mm
zone of inhibition at 500 µg/mL (Microsporum canis; [3]): 75 mm
zone of inhibition at 1000 µg/mL (Microsporum canis; [4]): 85 mm
inhibition of Microsporum canis grown on the solid media (in words) (Microsporum canis): strongly inhibited
zone of inhibition at 1000 µg/mL (Microsporum gallinna [2]): 85 mm
inhibition of Microsporum gallinna grown on the solid media (in words) (Microsporum gallinna [2]): strongly inhibited
